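Compound exposure: 48 hours, 5 concentrations, 96-well plates. GI50 marks 50% less growth.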 Calls of active or inactive are those of the source. Rule as the data show it: active = GI50 up to about 1.1 µM and inactive = higher.
How the values were obtained:
Assay in all cases: DTP human tumour cell line panel, 48 h
RPMI-8226 = system: RPMI-8226
CCRF-CEM = system: CCRF-CEM
SF-539 = system: SF-539
A549 = system: A549
U-251 = system: U-251
M14 = system: M14
SNB-75 = system: SNB-75
NCI-H226 = system: NCI-H226
HL-60 = system: HL-60
KM12 = system: KM12
CAKI-1 = system: CAKI-1
RXF 393 = system: RXF 393
SF-268 = system: SF-268
NCI-H460 = system: NCI-H460
A498 = system: A498

Measured: GI50

c1ccc(-c2csc3ncn4cnnc4c23)cc1
inactive: RPMI-8226 59.6 µM | CCRF-CEM 85.9 µM | SF-539 > 100 µM | A549 > 100 µM | U-251 > 100 µM | M14 > 100 µM | SNB-75 22.3 µM | NCI-H226 54.1 µM | HL-60 86.1 µM | KM12 > 100 µM

CCCCCCCCCC(=O)CC(=O)c1c(O)cccc1O
inactive: RPMI-8226 25.6 µM | CCRF-CEM 27.4 µM | SF-539 45.4 µM | A549 28.8 µM | U-251 24.9 µM | M14 22 µM | SNB-75 28 µM | CAKI-1 33.2 µM | RXF 393 27 µM | NCI-H226 25.9 µM | SF-268 33.8 µM | NCI-H460 34.5 µM | HL-60 21.4 µM | KM12 35.1 µM

COc1nc2c(nc(N)n2C2OC(CO)C(O)C(O)C2O)c(=O)n1C (configuration not stated)
inactive: A498 > 100 µM | CCRF-CEM > 100 µM | SF-539 > 100 µM | A549 > 100 µM | U-251 > 100 µM | M14 > 100 µM | SNB-75 > 100 µM | CAKI-1 > 100 µM | RXF 393 > 100 µM | NCI-H226 > 100 µM | SF-268 > 100 µM | NCI-H460 > 100 µM | HL-60 > 100 µM | KM12 > 100 µM

Oc1c(-c2ccccc2)nc2ccccn12
inactive: A498 > 100 µM | CCRF-CEM > 100 µM | SF-539 > 100 µM | A549 > 100 µM | U-251 > 100 µM | M14 > 100 µM | SNB-75 > 100 µM | CAKI-1 > 100 µM | RXF 393 > 100 µM | NCI-H226 > 100 µM | SF-268 > 100 µM | NCI-H460 > 100 µM | HL-60 > 100 µM | KM12 > 100 µM

O=C1O[C@@H](c2ccc3c(c2)OCO3)C2C(=O)O[C@@H](c3ccc4c(c3)OCO4)C12 (some centres not stated)
inactive: RPMI-8226 > 100 µM | A498 > 100 µM | CCRF-CEM > 100 µM | SF-539 > 100 µM | A549 > 100 µM | U-251 > 100 µM | M14 > 100 µM | SNB-75 83.6 µM | RXF 393 > 100 µM | NCI-H226 > 100 µM | SF-268 > 100 µM | NCI-H460 > 100 µM | HL-60 > 100 µM | KM12 > 100 µM

Cc1cccc(NC(=O)CSc2nnc(-c3ccc(/N=C\c4ccc(Cl)cc4)cc3)o2)c1
inactive: RPMI-8226 > 100 µM | CCRF-CEM > 100 µM | A549 > 100 µM | U-251 > 100 µM | M14 > 100 µM | SNB-75 > 100 µM | RXF 393 60.4 µM | NCI-H226 > 100 µM | SF-268 > 100 µM | NCI-H460 > 100 µM | HL-60 > 100 µM | KM12 > 100 µM

CCCCCCCCCCCCOC(=S)NCCCC
inactive: RPMI-8226 15.7 µM | A498 20 µM | CCRF-CEM 27.5 µM | SF-539 21.3 µM | U-251 20.2 µM | M14 27.8 µM | SNB-75 30.3 µM | RXF 393 23.8 µM | NCI-H226 20.1 µM | SF-268 26.8 µM | NCI-H460 24.4 µM | HL-60 18.5 µM | KM12 20 µM

CC(C)C(=O)N1Cc2cc(Cl)cc(Cl)c2OC(=O)c2ccccc21
inactive: RPMI-8226 25.5 µM | A498 27.5 µM | CCRF-CEM 27 µM | SF-539 18.7 µM | A549 31 µM | M14 25.8 µM | SNB-75 30.3 µM | CAKI-1 22.8 µM | NCI-H226 23.1 µM | SF-268 19.6 µM | NCI-H460 33 µM | HL-60 22.6 µM | KM12 32.8 µM

COc1ccccc1C1C(Cl)C(=O)N1NC(=O)Cc1ccccc1 (configuration not stated)
inactive: RPMI-8226 46.5 µM | CCRF-CEM > 100 µM | A549 > 100 µM | U-251 > 100 µM | M14 > 100 µM | SNB-75 31.7 µM | CAKI-1 82.4 µM | RXF 393 53.1 µM | NCI-H226 48.5 µM | SF-268 > 100 µM | NCI-H460 > 100 µM | HL-60 34.8 µM | KM12 > 100 µM

CCOC(=O)NC(=O)c1cn(CCCCCCCCCCC(=O)NCCCN2CCN(CCCNC(=O)CCCCCCCCCCn3cc(C(=O)NC(=O)OCC)c(=O)[nH]c3=O)CC2)c(=O)[nH]c1=O
inactive: A498 > 100 µM | CCRF-CEM > 100 µM | SF-539 > 100 µM | A549 > 100 µM | U-251 > 100 µM | M14 > 10 µM | SNB-75 > 100 µM | CAKI-1 > 10 µM | SF-268 > 100 µM | NCI-H460 > 100 µM | HL-60 > 100 µM | KM12 > 100 µM

Nc1nc(-c2ccc(Cl)c([N+](=O)[O-])c2)cs1
inactive: RPMI-8226 > 100 µM | A498 20 µM | CCRF-CEM > 100 µM | SF-539 28.7 µM | A549 > 100 µM | U-251 40.6 µM | M14 > 100 µM | SNB-75 30.4 µM | CAKI-1 80 µM | RXF 393 29.3 µM | SF-268 86.5 µM | NCI-H460 > 100 µM | HL-60 > 100 µM | KM12 71 µM

COc1ccccc1NC(=O)C1=C(C)NC(C)=C(C(=O)Nc2ccccc2OC)C1c1cccc2c1OCO2
inactive: RPMI-8226 33 µM | A498 > 100 µM | CCRF-CEM 34.6 µM | SF-539 21.4 µM | A549 62.7 µM | U-251 > 100 µM | M14 > 100 µM | SNB-75 14.1 µM | CAKI-1 > 100 µM | NCI-H226 > 100 µM | SF-268 > 100 µM | NCI-H460 > 100 µM | HL-60 41.2 µM | KM12 60.7 µM

COC(=O)C(CCC1(C)OCCO1)=[N+]=[N-]
inactive: A498 > 100 µM | CCRF-CEM > 100 µM | SF-539 > 100 µM | A549 > 100 µM | U-251 > 100 µM | M14 > 100 µM | SNB-75 > 100 µM | RXF 393 > 100 µM | NCI-H226 > 100 µM | SF-268 > 100 µM | NCI-H460 > 100 µM | HL-60 > 100 µM | KM12 > 100 µM

CCOC(=O)N(c1ccccc1)N(CC)C(=O)/C(C)=N/Nc1ccc([N+](=O)[O-])cc1
inactive: RPMI-8226 16.8 µM | A498 14.3 µM | CCRF-CEM 17.2 µM | SF-539 16.1 µM | A549 16.7 µM | U-251 15 µM | M14 17.9 µM | SNB-75 18.1 µM | RXF 393 13 µM | NCI-H226 22 µM | SF-268 17.2 µM | HL-60 11 µM | KM12 15.4 µM

c1cc(C2O[C@H]3CCCN3[C@@H]2c2ccncc2)ccn1 (some centres not stated)
inactive: RPMI-8226 > 100 µM | A498 > 100 µM | CCRF-CEM > 100 µM | SF-539 > 100 µM | A549 > 100 µM | U-251 > 100 µM | M14 > 100 µM | SNB-75 > 100 µM | CAKI-1 > 100 µM | RXF 393 > 100 µM | NCI-H226 > 100 µM | SF-268 > 100 µM | NCI-H460 > 100 µM | KM12 > 100 µM

From ChEMBL document CHEMBL1201862, “PubChem BioAssay data set” (2004)
